According to patent US5849736A, “Isoxazoline and isoxazole fibrinogen receptor antagonists” (The DuPont Merck Pharmaceutical Company, priority 1995, dated 1998):
Structures can show the parent of a compound that is named as a salt. Where two headings read alike, the source gives them in different places.

Test system: platelet aggregation in human platelet rich plasma (PRP)
Assay: Platelet Aggregation Assay (platelet rich plasma, with or without esterase pretreatment)
Assay type: cell-based
Details: Platelet
Summary of the method: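 Human citrated PRP from drug-free donors, PPP as 100% transmittance blank; compounds added at various concentrations before agonist (ADP, collagen, arachidonate, epinephrine or thrombin), aggregation followed by light transmittance. Ester prodrugs pretreated (10^-3 M F.C.) with 100 IU/mL porcine liver esterase, 2 h 37 °C; 8 min 37 °C preincubation, then 100 μM ADP, 5 min; % inhibition vs control, IC50.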

[1] = preincubated with 100 IU/mL porcine liver esterase 2 hours at 37° C., 100 μM ADP, read-out: Platelet Aggregation Assay IC50 (with esterase)
[2] = without esterase, read-out: Platelet Aggregation Assay IC50 (without esterase)

Compound | IC50 [1] | other results
O=C(O)CCN1C(=O)CC2(CC(CCC3CCNCC3)=NO2)C1=O (racemic) [Example 189, 5(R,S)-(2-Piperidin-4-ylethyl-8-(2-carboxyethyl)-1-oxa-2,8-diazaspiro[4.4]non-2-ene-7,9-dione] |  | IC50 (without esterase, given as a bound, not a class symbol, read-out: Platelet Aggregation Assay IC50 (without esterase)): > 100 µM
Cn1cnc(S(=O)(=O)NC(CNC(=O)CC2CC(c3ccc(C(=N)N)cc3)=NO2)C(=O)O)c1 (stereo not drawn) [Example 643] | < 10 µM | 
COC(=O)CC(NC(=O)CC1CC(c2ccc(C(=N)N)cc2)=NO1)c1ccccc1 (stereo not drawn) [Example 89] | < 10 µM | 
CCOC(=O)CC1CCCCCN1C(=O)CC1CC(c2ccc(C(=N)N)cc2)=NO1 (stereo not drawn) [Example 415] | < 10 µM | 
N=C(N)c1ccc(C2=NOC(CC(=O)N[C@@H](CC(=O)O)C(=O)NCCc3ccccc3)C2)cc1 (stereo partly drawn) [Example 435, (S)-N^α -[3-(4-Amidinophenyl)-isoxazolin-5-(R,S)-ylacetyl]-α-aspart-N-(2-phenylethyl)amide, trifluoroacetic acid salt] | < 10 µM | 
COC(=O)CC(CSc1ccccc1)NC(=O)CC1CC(c2ccc(C(=N)N)cc2)=NO1 (racemic) [Example 350, Methyl 3(R,S)-N-(R,S)-{5-[3-(4-amidinophenyl)isoxazolin-5-ylacetyl]amino}-4-(phenylthio)butanoate hydrochloric acid salt] | < 10 µM | 
CCCCOC(=O)N[C@@H](CNC(=O)C[C@H]1CC(c2ccc(C(=N)N)cc2)=NO1)C(=O)OC [Example 314B, Methyl-N^2-n-butyloxycarbonyl-N^3-[3-(4-amidinophenyl)isoxazolin-5(R)-ylacetyl]-(S)-2,3-diaminopropionate TFA salt] | < 10 µM | 
Cc1ccccc1C(=O)N[C@@H](CNC(=O)CC1CC(c2ccc(C(=N)N)cc2)=NO1)C(=O)O (stereo partly drawn) [Example 540, N^2-methylphenylcarbonyl-N^3-[3-(4-amidinophenyl)isoxazolin-5-(R,S)-ylacetyl]-(S)-2,3-diaminopropionicacid] | < 10 µM | 
COC(=O)C(CNC(=O)CC1CC(c2ccc(C(=N)N)cc2)=NO1)NS(=O)(=O)c1cccc(Cl)c1Cl (stereo not drawn) [Example 542] | < 10 µM | 
COC(=O)C(CNC(=O)CC1CC(c2ccc(C(=N)N)cc2)=NO1)NS(=O)(=O)c1cc2ccccc2s1 (stereo not drawn) [Example 555] | < 10 µM | 
COC(=O)C(CNC(=O)CC1CC(c2ccc(C(=N)N)cc2)=NO1)NS(=O)(=O)c1cccs1 (stereo not drawn) [Example 472] | < 10 µM | 
CCOC(=O)CC(NC(=O)CC1CC(c2ccc(C(=N)N)cc2)=NO1)C(=O)NCC12CC3CC(CC(C3)C1)C2 (stereo not drawn) [Example 462] | < 10 µM | 
COC(=O)C(CNC(=O)CC1CC(c2ccc(C(=N)N)cc2)=NO1)NS(=O)(=O)c1cccc(C)c1 (stereo not drawn) [Example 473] | < 10 µM | 
CCCCOC(=O)N[C@@H](CNC(=O)CC1CC(c2ccc(C(=N)N)cc2)=NO1)C(=O)O (stereo partly drawn) [Example 278, N^2-n-butyloxycarbonyl-N^3-[3-(4-amidinophenyl)isoxazolin-5(R, S)-ylacetyl]-L-2,3-diaminopropionic acid TFA salt] | < 10 µM | 
Cc1cccc(S(=O)(=O)N[C@@H](CNC(=O)CC2CC(c3ccc(C(=N)N)cc3)=NO2)C(=O)O)c1 (stereo partly drawn) [Example 587A, N^2-3-methylphenylsulfonyl-N^3-[3-(4-amidinophenyl)isoxazolin-5S-ylacetyl]-S-2,3-diaminopropionic acid] |  | IC50 [2]: < 10 µM
COC(=O)C(CNC(=O)CC1CC(c2ccc(C(=N)N)cc2)=NO1)NC(=O)OCCC1CCCC1 (stereo not drawn) [Example 535] | < 10 µM | 
COC(=O)C(CNC(=O)CC1CC(c2ccc(C(=N)N)cc2)=NO1)NC(=O)NCc1ccccc1 (stereo not drawn) [Example 520] | < 10 µM | 
COC(=O)C(CNC(=O)CC1CC(c2ccc(C(=N)N)cc2)=NO1)NS(=O)(=O)c1cccc(C(F)(F)F)c1 (stereo not drawn) [Example 475] | < 10 µM | 
COC(=O)C(CNC(=O)CC1CC(c2ccc(C(=N)N)cc2)=NO1)NS(=O)(=O)c1ccc(OC)cc1 (stereo not drawn) [Example 484] | < 10 µM | 
CC(C)(C)OC(=O)NC(=N)c1ccc(C2=NOC(CC(=O)NCC(NS(=O)(=O)c3ccc(S(=O)(=O)c4ccccc4)s3)C(=O)O)C2)cc1 (stereo not drawn) [Example 2120] | < 10 µM | 

Compound | IC50 [1] | other results
N=C(N)c1ccc(C2=NOC(CC(=O)N3CCCCCC3CC(=O)O)C2)cc1 (racemic) [Example 377, 2-(R,S)-2-Carboxymethyl-1-{5-(R,S)-N-[3-(4-amidinophenyl)isoxazolin-5-ylacetyl]}azepine] |  | IC50 [2]: < 10 µM
COC(=O)C(CNC(=O)CC1CC(c2ccc(C(=N)N)cc2)=NO1)NC(=O)OCCC1CC1 (stereo not drawn) [Example 533] | < 10 µM | 
COC(=O)CC(NC(=O)CC1CC(c2ccc(C(=N)N)cc2)=NO1)C(=O)NC12CC3CC(CC(C3)C1)C2 (stereo not drawn) [Example 466] | < 10 µM | 
O=C(O)CCCN1C(=O)CC2(CC(CCC3CCNCC3)=NO2)C1=O (stereo not drawn) [Example 190] |  | IC50 [2]: 50 to 100 µM
CCNC(=N)c1ccc(C2=NOC(CC(=O)NCC(NS(=O)(=O)c3ccccc3C)C(=O)O)C2)cc1 (stereo not drawn) [Example 2116] | < 10 µM | 
O=C(O)CCC1CC(c2ccc(OCCC3CCNCC3)cc2)=NO1 (racemic) [Example 8, 3-[4-(2-Piperidin-4-yl)ethoxyphenyl]-(5R,S) -isoxazolin-5-ylpropionic Acid, Trifluoroacetic Acid Salt] |  | IC50 [2]: 50 to 100 µM
CCOC(=O)C[C@@H](CC(C)C)NC(=O)CC1CC(c2ccc(C(=N)N)cc2)=NO1 (stereo partly drawn) [Example 348, Ethyl 3(R)-{5(R,S)-N-[3-(4-amidinophenyl)isoxazolin-5-ylacetyl]amino}-5-methylhexanoate . trifluoroacetic acid salt] | < 10 µM | 
CCCCOC(=O)N[C@@H](CNC(=O)CC1CC(c2ccc(C(=N)N)nc2)=NO1)C(=O)OC (stereo partly drawn) [Example 515, Methyl N^2-(n-butyloxycarbonyl)-N^3-[3-(2-amidinopyrid-5-yl)isoxazolin-5-ylacetyl]-S-2,3-diaminopropionate hydrochloric acid salt] | < 10 µM | 
COC(=O)C(CNC(=O)CC1CC(c2ccc(C(N)=NC(=O)OC(C)(C)C)cc2)=NO1)NC(=O)OCc1ccccc1 (stereo not drawn) [Example 440] | < 10 µM | 
COC(=O)CC(CCc1ccncc1)NC(=O)CC1CC(c2ccc(C(=N)N)cc2)=NO1 (stereo not drawn) [Example 450] | < 10 µM | 
COC(=O)C(CNC(=O)CC1CC(c2ccc(C(=N)N)cc2)=NO1)NC(=O)c1ccc(-c2ccccc2)cc1 (stereo not drawn) [Example 523] | < 10 µM | 
COC(=O)C(CNC(=O)CC1CC(c2ccc(C(=N)N)cc2)=NO1)NS(=O)(=O)c1ccc(-c2cc(C(F)(F)F)n(C)n2)s1 (stereo not drawn) [Example 550] | < 10 µM | 
O=C(O)CCCN1C(=O)CC2(CC(CCCC3CCNCC3)=NO2)C1=O (stereo not drawn) [Example 373] |  | IC50 [2]: 10 to 50 µM
CCCCOC(=O)N[C@@H](CNC(=O)CC1CC(c2ccc(C(=N)N)cn2)=NO1)C(=O)OC (stereo partly drawn) [Example 513, Methyl N^2-(n-butyloxycarbonyl)-N^3-[3-(3-amidinopyrid-6-yl)isoxazolin-5-ylacetyl]-S-2,3-diaminopropionate hydrochloric acid salt] | < 10 µM | 
COC(=O)C(CNC(=O)CC1CC(c2ccc(C(=N)N)cc2)=NO1)NS(=O)(=O)c1sc(NC(C)=O)nc1C (stereo not drawn) [Example 553] | < 10 µM | 
COC(=O)C(CNC(=O)CC1CC(c2ccc(C(=N)N)cc2)=NO1)NS(=O)(=O)c1ccc(Br)cc1 (stereo not drawn) [Example 545] | < 10 µM | 
COC(=O)c1ccccc1S(=O)(=O)NC(CNC(=O)CC1CC(c2ccc(C(=N)N)cc2)=NO1)C(=O)OC (stereo not drawn) [Example 477] | < 10 µM | 
COC(=O)C(CNC(=O)CC1CC(c2ccc(C(=N)N)cc2)=NO1)NS(=O)(=O)c1ccccc1F (stereo not drawn) [Example 482] | < 10 µM | 
N=C(N)NCCCCC1=NOC(CC(=O)NCC(NC(=O)OCc2ccccc2)C(=O)O)C1 (stereo not drawn) [Example 1731] | < 10 µM | 
